Assay results from patent US7632811B2, “Analogs of parathyroid hormone” (Societe de Conseils de Recherches et D'Applications …, priority 1995, dated 2009).
Non-standard residues stand in square brackets, D forms with d. Residues, ends and D or L forms follow the SMILES beside them. hArg = N=C(N)NCCCC[C@H](N)C(=O)O; Cha = N[C@@H](CC1CCCCC1)C(=O)O; Nle = CCCC[C@H](N)C(=O)O

Biological target: T1, PTH receptor present on SaOS-2 (human osteosarcoma cells) (Homo sapiens, UniProt Q03431)
T1 construct: host or cells: SaOS-2 human osteosarcoma cells (intact, confluent monolayers)
T1 sequence (Q03431 27-593): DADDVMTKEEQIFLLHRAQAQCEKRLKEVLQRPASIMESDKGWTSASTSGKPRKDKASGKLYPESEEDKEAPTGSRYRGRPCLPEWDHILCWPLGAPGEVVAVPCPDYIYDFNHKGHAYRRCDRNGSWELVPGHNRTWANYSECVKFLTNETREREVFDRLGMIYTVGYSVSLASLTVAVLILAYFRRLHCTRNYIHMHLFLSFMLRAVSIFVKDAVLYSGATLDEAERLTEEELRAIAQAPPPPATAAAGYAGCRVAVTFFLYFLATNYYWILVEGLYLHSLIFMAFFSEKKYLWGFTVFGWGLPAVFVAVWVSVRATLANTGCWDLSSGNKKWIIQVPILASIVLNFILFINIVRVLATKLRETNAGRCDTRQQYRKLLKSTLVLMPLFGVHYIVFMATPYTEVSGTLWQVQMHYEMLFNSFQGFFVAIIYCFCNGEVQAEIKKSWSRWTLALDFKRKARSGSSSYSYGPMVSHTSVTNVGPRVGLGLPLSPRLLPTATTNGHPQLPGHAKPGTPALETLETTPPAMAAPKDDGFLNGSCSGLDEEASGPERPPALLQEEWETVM
Experiment: Binding to PTH receptor on SaOS-2 cells (competition with mono-125I-[Nle8,18,Tyr34(3-125I)]bPTH(1-34)NH2)
Conditions: Table I, 2 hrs at room temperature, read-out: Kd (half maximal inhibition of binding of mono-125I-[Nle8,18, Tyr34(3-125I)]bPTH(1-34)NH2)
Procedure, shortened: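 Confluent SaOS-2 cells in 5% FBS RPMI were incubated 2 h at room temperature with 10×10^4 cpm mono-125I-[Nle8,18,Tyr34(3-125I)]bPTH(1-34)NH2 plus competing peptide at 10^−11 to 10^−4 M. After washing, cell-bound radioactivity was counted; Kd taken as half-maximal inhibition of tracer binding.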

Compound | Kd
CCCC[C@H](NC(=O)[C@H](CO)NC(=O)[C@H](CC(N)=O)NC(=O)[C@H](CC(C)C)NC(=O)[C@H](Cc1c[nH]cn1)NC(=O)[C@H](CCCCN)NC(=O)CNC(=O)[C@H](CC(C)C)NC(=O)[C@H](CC(N)=O)NC(=O)[C@H](Cc1c[nH]cn1)NC(=O)[C@H](CCCC)NC(=O)[C@H](CC(C)C)NC(=O)[C@H](CCC(N)=O)NC(=O)[C@@H](NC(=O)[C@H](CCC(=O)O)NC(=O)[C@H](CO)NC(=O)[C@@H](NC(=O)[C@@H](N)CO)C(C)C)[C@@H](C)CC)C(=O)N[C@@H](CCC(=O)O)C(=O)N[C@@H](CCCNC(=N)N)C(=O)N[C@H](C(=O)N[C@@H](CCC(=O)O)C(=O)N[C@@H](Cc1c[nH]c2ccccc12)C(=O)N[C@@H](CC(C)C)C(=O)N[C@@H](CCCNC(=N)N)C(=O)N[C@@H](CCCCN)C(=O)N[C@@H](CC1CCCCC1)C(=O)N[C@@H](CC(C)C)C(=O)N[C@@H](CCC(N)=O)C(=O)N[C@@H](CC(=O)O)C(=O)N[C@H](C(=O)N[C@@H](Cc1c[nH]cn1)C(=O)N[C@@H](CC(N)=O)C(=O)N[C@@H](Cc1ccccc1)C(N)=O)C(C)C)C(C)C [[Nle^8,18, Cha^27]hPTH(1-34)NH2] (H-SVSEIQL[Nle]HNLGKHLNS[Nle]ERVEWLRK[Cha]LQDVHNF-NH2) | 50 nM
CCCC[C@H](NC(=O)[C@H](CC(=O)O)NC(=O)[C@H](CCC(N)=O)NC(=O)[C@H](CC(C)C)NC(=O)[C@H](CCCCN)NC(=O)[C@H](CCCCN)NC(=O)[C@H](CCCNC(=N)N)NC(=O)[C@H](CC(C)C)NC(=O)[C@H](Cc1c[nH]c2ccccc12)NC(=O)[C@H](CCC(=O)O)NC(=O)[C@@H](NC(=O)[C@H](CCCNC(=N)N)NC(=O)[C@H](CCC(=O)O)NC(=O)[C@H](CCSC)NC(=O)[C@H](CO)NC(=O)[C@H](CC(N)=O)NC(=O)[C@H](CC(C)C)NC(=O)[C@H](Cc1c[nH]cn1)NC(=O)[C@H](CCCCN)NC(=O)CNC(=O)[C@H](CC(C)C)NC(=O)[C@H](CC(N)=O)NC(=O)[C@H](Cc1c[nH]cn1)NC(=O)[C@H](CCSC)NC(=O)[C@H](CC(C)C)NC(=O)[C@H](CCC(N)=O)NC(=O)[C@@H](NC(=O)[C@H](CCC(=O)O)NC(=O)[C@H](CO)NC(=O)[C@@H](NC(=O)[C@@H](N)CO)C(C)C)[C@@H](C)CC)C(C)C)C(=O)N[C@@H](Cc1c[nH]cn1)C(=O)N[C@@H](CC(N)=O)C(=O)N[C@@H](Cc1ccccc1)C(N)=O [[Nle^31]hPTH(1-34)NH2] (H-SVSEIQLMHNLGKHLNSMERVEWLRKKLQD[Nle]HNF-NH2) | 4 nM
CC[C@H](C)[C@H](NC(=O)[C@H](CCC(=O)O)NC(=O)[C@H](CO)NC(=O)[C@@H](NC(=O)[C@@H](N)CO)C(C)C)C(=O)N[C@@H](CCC(N)=O)C(=O)N[C@@H](CC(C)C)C(=O)N[C@@H](CCSC)C(=O)N[C@@H](Cc1c[nH]cn1)C(=O)N[C@@H](CC(N)=O)C(=O)N[C@@H](CC(C)C)C(=O)NCC(=O)N[C@@H](CCCCN)C(=O)N[C@@H](Cc1c[nH]cn1)C(=O)N[C@@H](CC(C)C)C(=O)N[C@@H](CC(N)=O)C(=O)N[C@@H](CO)C(=O)N[C@@H](CCSC)C(=O)N[C@@H](CCC(=O)O)C(=O)N[C@@H](CCCNC(=N)N)C(=O)N[C@H](C(=O)N[C@@H](CCC(=O)O)C(=O)N[C@@H](Cc1c[nH]c2ccccc12)C(=O)N[C@@H](CC(C)C)C(=O)N[C@@H](CCCNC(=N)N)C(=O)N[C@@H](CCCCN)C(=O)N[C@@H](CCCCNC(=N)N)C(=O)N[C@@H](CC(C)C)C(=O)N[C@@H](CCC(N)=O)C(=O)N[C@@H](CC(=O)O)C(=O)N[C@H](C(=O)N[C@@H](Cc1c[nH]cn1)C(=O)N[C@@H](CC(N)=O)C(=O)N[C@@H](Cc1ccccc1)C(N)=O)C(C)C)C(C)C [[hArg^27]hPTH(1-34)NH2] (H-SVSEIQLMHNLGKHLNSMERVEWLRK[hArg]LQDVHNF-NH2) | 7 nM
